From ChEMBL document CHEMBL6087398, “Natural phenol carbamates: Selective BuChE/FAAH dual inhibitors show neuroprotection in an Alzheimer's disease mouse model” (Eur J Med Chem, 2025) come the findings set out here.

SMILES strings stand for the structures. Activity calls are given as the source filed them. The rule behind the calls is not given here.

As a reminder, the Kd is the free concentration of one partner at which half of the binding sites on the other are occupied at equilibrium, for simple one-to-one binding. As a reminder, the IC50 is the concentration that inhibits the measured activity by half. A word on the Papp: it is the rate of passage across a membrane or cell layer, normalised by area and donor concentration. Broadly, the inhibition is the relative decrease from the control value, in per cent.

For data set [1], the system named is BV-2. Kind of data set: Induction of microglial polarization to M2 phenotype in mouse BV-2 cells assessed as increase in Arg-1 expression incubated for 24 hrs by Western blotting analysis. Type of data set: functional, cell-based. As to conditions: dose 0-10 µM.
Data set [2] deals with T1, Cholinesterase (Homo sapiens, UniProt P06276). The data set is described as follows: Binding affinity to human BuChE (unknown origin) assessed as equilibrium dissociation constant at 100 to 1000 nM incubated for 60 mins.
Data set [3] deals with Mus musculus. Kind of data set: Antialzheimer activity against amyloid beta (1 to 42 residues) induced ICR male mouse model assessed as prevention in cognitive dysfunction at 10 mg/kg, po administered for 12 days by Morris water maze test. Type of data set: functional, organism-based. Conditions: time 12.0 day.
For data set [4], the system named is PC-12. Kind of data set: Neuroprotective activity against H2O2 induced rat PC12 cells assessed as cell viability measured after 24 hrs by MTT assay. Type of data set: functional, cell-based. As to conditions: dose 6.25-50 µM. For orientation: Tetrazolium dyes change colour on reduction, which living cells bring about.
Data set [5] relates to Mus musculus. Kind of data set: Antialzheimer activity against amyloid beta (1 to 42 residues) induced ICR male mouse model assessed as reduction in amyloid beta (1 to 42 residues) at 10 mg/kg, po administered for 12 days by ELISA relative to control. The format is functional. Further details: scale not given: the % may be the effect or the level left. As to conditions: time 12 day. (An ELISA detects its analyte on a solid surface through an enzyme-linked reagent.)

Data set [6] concerns the target Cholinesterase (Equus caballus, UniProt P81908). The data set is described as follows: Inhibition of equine BuChE using butyrylthiocholine iodide as substrate preincubated with enzyme for 20 mins followed by substrate addition and measured after 20 mins by Ellman's method.
Data set [7] can be described thus: Toxicity in amyloid beta (1 to 42 residues) induced ICR male mouse model assessed as pericentral necrosis at 10 mg/kg, po administered for 12 days and measured on day 15 by H and E staining based immunohistochemistry analysis. Type of data set: organism-based. As to conditions: in vivo, 288 h, time 12 day.
Data set [8] concerns the target T1, Cholinesterase. The data set is described as follows: Binding affinity to human BuChE (unknown origin) assessed as carbamolyation rate at 100 to 1000 nM incubated for 60 mins. As to conditions: dose 100-1000 nM.
A short description of data set [9]: Neurotoxicity against mouse BV-2 cells assessed as reduction in cell viability at 25 to 50 uM incubated for 24 hrs by MTT assay. The format is toxicity, cell-based. Conditions: bv-2, 24 h, dose 25-50 µM.
The nature of data set [10]: in vitro. Conditions: PAMPA, pH 7.4. In general terms: In PAMPA a lipid-coated filter parts donor from acceptor wells.
Description: Permeability of the compound in PBS at pH 7.4 incubated for 18 hrs by PAMPA-BBB assay
In data set [11] the target is T1, Cholinesterase. Kind of data set: Inhibition of human BuChE using butyrylthiocholine iodide as substrate incubated for 5 mins.
A short description of data set [12]: Neurotoxicity against mouse BV-2 cells assessed as improvement in cell morphological changes at 20 uM by inverted microscopic analysis. Type of data set: toxicity, cell-based. As to conditions: bv-2, 20 µM.
In data set [13] the test system is BV-2. The data set is described as follows: Induction of microglial polarization to M2 phenotype in mouse BV-2 cells assessed as increase in CD206 expression incubated for 24 hrs by Western blotting analysis. The format is functional, cell-based. Conditions: dose 0-10 µM.
Data set [14] relates to Mus musculus. The data set is described as follows: Antialzheimer activity against amyloid beta (1 to 42 residues) induced ICR male mouse model assessed as increase in neuron density in hippocampal CA1 region at 10 mg/kg, po administered for 12 days and measured on day 15 by H and E staining based analysis. The format is functional, organism-based. Conditions: time 12.0 day.

Data set [15] has as its target T1, Cholinesterase. The data set is described as follows: Binding affinity to human BuChE (unknown origin) assessed as overall carbamolyation rate at 100 to 1000 nM incubated for 60 mins.
Data set [16] relates to BV-2. The data set is described as follows: Induction of microglial polarization to M2 phenotype in mouse BV-2 cells assessed as reduction in iNOS activity incubated for 24 hrs by Western blotting analysis. Type of data set: functional, cell-based.
In data set [17] the test system is BV-2. The data set is described as follows: Immunomodulatory activity in mouse BV-2 cells assessed as decrease in LPS induced IL-1 beta release incubated for 24 hrs by Western blotting analysis. Type of data set: functional, cell-based. Conditions: dose 0-10 µM.
For data set [18], the target named is T2, Fatty-acid amide hydrolase 1 (Homo sapiens, UniProt O00519).
T2 sequence (O00519 whole entry): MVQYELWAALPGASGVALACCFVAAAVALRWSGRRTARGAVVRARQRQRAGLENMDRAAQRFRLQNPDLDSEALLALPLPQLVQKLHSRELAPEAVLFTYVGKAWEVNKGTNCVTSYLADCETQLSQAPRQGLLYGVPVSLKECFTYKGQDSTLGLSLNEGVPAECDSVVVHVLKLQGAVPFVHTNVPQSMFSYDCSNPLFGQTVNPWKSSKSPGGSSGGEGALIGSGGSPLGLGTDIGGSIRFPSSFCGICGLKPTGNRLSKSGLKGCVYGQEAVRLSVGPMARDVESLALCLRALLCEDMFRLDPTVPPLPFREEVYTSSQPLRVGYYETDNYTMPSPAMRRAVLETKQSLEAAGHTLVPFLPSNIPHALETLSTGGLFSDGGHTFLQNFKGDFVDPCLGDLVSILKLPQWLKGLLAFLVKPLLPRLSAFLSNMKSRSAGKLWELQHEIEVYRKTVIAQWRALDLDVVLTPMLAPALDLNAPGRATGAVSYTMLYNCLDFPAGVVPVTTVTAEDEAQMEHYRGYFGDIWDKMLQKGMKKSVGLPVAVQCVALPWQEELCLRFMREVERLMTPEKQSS
Kind of data set: Inhibition of human FAAH using arachidonoyl amide as substrate incubated for 30 mins by fluorescence-based cayman assay.

Data set [19] relates to PC-12. The data set is described as follows: Neuroprotective activity against H2O2 induced rat PC12 cells assessed as increase in cell viability at 50 uM measured after 24 hrs by MTT assay relative to control. The format is functional.
The subject of data set [20] is BV-2. Kind of data set: Immunomodulatory activity in mouse BV-2 cells assessed as decrease in LPS induced iNOS expression at 10 uM incubated for 24 hrs by Western blotting analysis. The format is functional, cell-based.
Data set [21] deals with T1, Cholinesterase. Kind of data set: Binding affinity to human BuChE (unknown origin) assessed as decarbamolyation rate at 100 to 1000 nM incubated for 60 mins. As to conditions: dose 100-1000 nM.
Data set [22] deals with L02. Kind of data set: Cytotoxicity against human L02 cells assessed as reduction in cell viability at 6.25 to 50 uM incubated for 24 hrs by MTT assay relative to control. Type of data set: toxicity, cell-based. Conditions: l02, 24 h, dose 6.25-50 µM.
Data set [23] deals with Acetylcholinesterase (Homo sapiens) (UniProt P22303). Kind of data set: Inhibition of recombinant human AChE using acetylthiocholine iodide as substrate incubated for 5 mins relative to control.
Data set [24] relates to BV-2. Kind of data set: Immunomodulatory activity in mouse BV-2 cells assessed as decrease in LPS induced IL-1 beta release at 10 uM incubated for 24 hrs by Western blotting analysis. Type of data set: functional, cell-based.
The target in data set [25] is Acetylcholinesterase (Electrophorus electricus) (UniProt O42275). Kind of data set: Inhibition of electric eel AChE using acetylthiocholine iodide as substrate preincubated with enzyme for 20 mins followed by substrate addition and measured after 20 mins by Ellman's method. Details: concentration or dose not given beside the values. Conditions: time 40.0 min.
In data set [26] the test system is L02. Kind of data set: Cytotoxicity against human L02 cells assessed as reduction in cell viability at 12.5 uM incubated for 24 hrs by MTT assay. Type of data set: toxicity, cell-based. Conditions: l02, 24 h.
The nature of data set [27]: Toxicity in amyloid beta (1 to 42 residues) induced ICR male mouse model assessed as hepatocyte fatty degeneration at 10 mg/kg, po administered for 12 days and measured on day 15 by H and E staining based immunohistochemistry analysis. The format is organism-based. Conditions: in vivo, 288 h, time 12 day.
A short description of data set [28]: Toxicity in amyloid beta (1 to 42 residues) induced ICR male mouse model assessed as effect on body weight at 10 mg/kg, po administered for 12 days and measured daily. The format is organism-based. Conditions: in vivo, 288 h, time 12 day.
The test system of data set [29] is BV-2. Kind of data set: Induction of microglial polarization to M2 phenotype in mouse BV-2 cells assessed as increase in Arg-1 activity incubated for 24 hrs by Western blotting analysis. The format is functional, cell-based.
Data set [30] concerns the target T2, Fatty-acid amide hydrolase 1. Kind of data set: Inhibition of human FAAH.

T1 sequence (P06276 whole entry, the tested form may be a part): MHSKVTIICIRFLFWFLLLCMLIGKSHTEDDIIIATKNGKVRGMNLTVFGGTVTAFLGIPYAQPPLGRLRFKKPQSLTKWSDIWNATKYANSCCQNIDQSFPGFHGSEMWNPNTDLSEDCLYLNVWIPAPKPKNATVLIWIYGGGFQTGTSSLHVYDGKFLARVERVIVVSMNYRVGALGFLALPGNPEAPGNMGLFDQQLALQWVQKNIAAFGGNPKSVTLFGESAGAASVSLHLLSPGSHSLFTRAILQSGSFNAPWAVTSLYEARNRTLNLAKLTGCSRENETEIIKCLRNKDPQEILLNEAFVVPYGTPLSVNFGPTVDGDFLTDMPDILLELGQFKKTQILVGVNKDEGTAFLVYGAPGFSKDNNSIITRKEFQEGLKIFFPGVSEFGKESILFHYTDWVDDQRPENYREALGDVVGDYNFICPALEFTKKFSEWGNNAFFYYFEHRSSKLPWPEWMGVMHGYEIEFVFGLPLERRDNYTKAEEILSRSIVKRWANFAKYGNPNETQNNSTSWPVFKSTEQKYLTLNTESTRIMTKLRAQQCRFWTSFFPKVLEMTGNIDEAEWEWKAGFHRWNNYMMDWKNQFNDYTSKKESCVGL
Chain of Acetylcholinesterase (Electrophorus electricus) (O42275 24-633 limits assumed): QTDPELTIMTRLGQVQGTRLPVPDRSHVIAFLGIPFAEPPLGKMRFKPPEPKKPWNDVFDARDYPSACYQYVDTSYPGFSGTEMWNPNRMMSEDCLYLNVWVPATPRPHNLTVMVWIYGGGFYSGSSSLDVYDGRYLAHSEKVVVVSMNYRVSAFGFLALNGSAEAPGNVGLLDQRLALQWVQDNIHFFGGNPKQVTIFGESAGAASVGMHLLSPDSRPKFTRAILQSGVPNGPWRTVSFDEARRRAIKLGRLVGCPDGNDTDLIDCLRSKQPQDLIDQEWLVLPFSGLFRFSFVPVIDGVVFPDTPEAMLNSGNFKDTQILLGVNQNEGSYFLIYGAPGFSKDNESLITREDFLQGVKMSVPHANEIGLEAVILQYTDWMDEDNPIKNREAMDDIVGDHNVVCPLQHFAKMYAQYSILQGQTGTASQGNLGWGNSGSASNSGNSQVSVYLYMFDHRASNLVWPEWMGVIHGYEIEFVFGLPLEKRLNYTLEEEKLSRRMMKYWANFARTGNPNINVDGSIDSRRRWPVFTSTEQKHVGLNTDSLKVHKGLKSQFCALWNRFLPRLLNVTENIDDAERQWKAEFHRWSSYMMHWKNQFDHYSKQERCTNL
Chain of Acetylcholinesterase (Homo sapiens) (P22303 whole entry): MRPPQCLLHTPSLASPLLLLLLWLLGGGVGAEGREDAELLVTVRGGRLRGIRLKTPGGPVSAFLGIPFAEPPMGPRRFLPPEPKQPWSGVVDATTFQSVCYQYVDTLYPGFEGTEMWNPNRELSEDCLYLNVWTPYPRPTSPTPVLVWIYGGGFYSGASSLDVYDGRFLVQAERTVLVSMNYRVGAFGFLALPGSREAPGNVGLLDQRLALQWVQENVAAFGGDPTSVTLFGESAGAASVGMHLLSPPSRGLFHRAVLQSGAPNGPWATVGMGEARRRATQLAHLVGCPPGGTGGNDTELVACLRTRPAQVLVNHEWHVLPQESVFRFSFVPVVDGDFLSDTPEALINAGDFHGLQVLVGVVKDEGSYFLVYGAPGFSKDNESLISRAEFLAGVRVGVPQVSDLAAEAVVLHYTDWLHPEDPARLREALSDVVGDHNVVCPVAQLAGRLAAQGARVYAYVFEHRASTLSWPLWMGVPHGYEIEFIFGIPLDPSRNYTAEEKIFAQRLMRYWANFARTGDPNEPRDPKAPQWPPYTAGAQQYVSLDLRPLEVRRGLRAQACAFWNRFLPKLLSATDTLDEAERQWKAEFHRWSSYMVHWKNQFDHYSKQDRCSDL
Chain of Cholinesterase (Equus caballus, UniProt P81908) (P81908 whole entry, the tested form may be a part): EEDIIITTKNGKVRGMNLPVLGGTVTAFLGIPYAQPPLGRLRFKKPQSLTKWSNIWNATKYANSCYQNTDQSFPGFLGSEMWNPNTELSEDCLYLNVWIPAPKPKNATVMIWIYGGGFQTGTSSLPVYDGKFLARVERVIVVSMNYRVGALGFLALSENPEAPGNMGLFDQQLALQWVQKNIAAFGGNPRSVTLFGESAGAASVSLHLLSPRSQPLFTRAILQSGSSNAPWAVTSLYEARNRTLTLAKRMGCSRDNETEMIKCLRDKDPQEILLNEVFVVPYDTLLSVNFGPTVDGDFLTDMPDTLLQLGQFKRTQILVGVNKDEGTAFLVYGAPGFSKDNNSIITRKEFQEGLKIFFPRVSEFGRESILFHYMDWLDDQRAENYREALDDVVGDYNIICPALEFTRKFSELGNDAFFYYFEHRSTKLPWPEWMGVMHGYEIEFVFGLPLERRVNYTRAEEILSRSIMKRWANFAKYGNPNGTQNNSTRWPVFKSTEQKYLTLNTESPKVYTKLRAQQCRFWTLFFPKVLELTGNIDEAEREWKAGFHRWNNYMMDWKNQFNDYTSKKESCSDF

For the compound `COc1ccc(C(C)=O)c(OC(=O)N(C)Cc2ccc(F)cc2)c1`, the Activity entry in data set [1] is “Dose-dependent-effect”; in [4], “Dose-dependent-effect”; in data set [5], 8.8%; in [7] it was “Non-toxic”; in data set [9], “Non-toxic”; in data set [12], “Non-toxic”. The Activity entry in data set [13] was “Dose-dependent-effect”; in data set [17], “Dose-dependent-effect”; in data set [19], 43%; in data set [22], 88.6%; in data set [26], “Non-toxic”; in data set [27], “Non-toxic”. Also, the Activity entry in data set [28] is recorded as “Non-toxic”. In data set [2], the Kd amounted to 2110 nM. Moreover, the result in data set [3], in [14], in data set [16], in data set [20], in data set [24] and in [29] was Active. The IC50 in data set [6] amounted to 12 nM; in [11], 81 nM; in [18], 400 nM. The K is 2.27 min⁻¹ in data set [8] and 2.83 min⁻¹ in data set [21]. In data set [10], this compound returned a Papp at 18 h of 16.4 ×10⁻⁶ cm/s. Further, the Ki in data set [15] is 2.8 10^-3/uM/min. Besides, the inhibition in data set [23] came out at 10.4%; in [25], 53%.
`CN(C(=O)n1cnc(-c2ccc[n+]([O-])c2)c1)C1CCCCC1` showed an IC50 in data set [30] of 7500 nM.
